In US9771360B2, “Cyano-substituted imidazo[1,2-A]pyridinecarboxamides and their use” (Bayer Pharma Aktiengesellschaft, priority 2014, dated 2017) one finds MEC data, which are given here for nine compounds.

The target of the assay is T1, recombinant guanylate cyclase reporter cell line (Rattus norvegicus, UniProt P19686+P20595).
T1 construct: expressed in transfected cells
T1 sequence (P20595 1-619): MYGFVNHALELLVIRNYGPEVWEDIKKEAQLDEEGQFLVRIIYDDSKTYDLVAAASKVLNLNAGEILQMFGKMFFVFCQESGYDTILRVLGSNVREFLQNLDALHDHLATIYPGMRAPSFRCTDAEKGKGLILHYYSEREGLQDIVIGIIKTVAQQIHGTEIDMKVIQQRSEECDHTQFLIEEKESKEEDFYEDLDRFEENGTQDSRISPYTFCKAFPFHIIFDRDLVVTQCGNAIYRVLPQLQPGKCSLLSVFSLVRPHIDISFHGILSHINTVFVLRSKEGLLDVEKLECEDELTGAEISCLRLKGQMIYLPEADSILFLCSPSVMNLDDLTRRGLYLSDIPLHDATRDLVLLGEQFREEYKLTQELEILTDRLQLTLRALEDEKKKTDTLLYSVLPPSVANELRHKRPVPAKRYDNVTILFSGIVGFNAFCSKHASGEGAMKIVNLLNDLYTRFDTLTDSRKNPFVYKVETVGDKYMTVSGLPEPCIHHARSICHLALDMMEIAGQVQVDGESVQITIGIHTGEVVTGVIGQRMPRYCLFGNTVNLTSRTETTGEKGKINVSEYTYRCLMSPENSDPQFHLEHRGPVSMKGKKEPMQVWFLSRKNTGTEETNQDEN
T1 sequence (P19686 1-690): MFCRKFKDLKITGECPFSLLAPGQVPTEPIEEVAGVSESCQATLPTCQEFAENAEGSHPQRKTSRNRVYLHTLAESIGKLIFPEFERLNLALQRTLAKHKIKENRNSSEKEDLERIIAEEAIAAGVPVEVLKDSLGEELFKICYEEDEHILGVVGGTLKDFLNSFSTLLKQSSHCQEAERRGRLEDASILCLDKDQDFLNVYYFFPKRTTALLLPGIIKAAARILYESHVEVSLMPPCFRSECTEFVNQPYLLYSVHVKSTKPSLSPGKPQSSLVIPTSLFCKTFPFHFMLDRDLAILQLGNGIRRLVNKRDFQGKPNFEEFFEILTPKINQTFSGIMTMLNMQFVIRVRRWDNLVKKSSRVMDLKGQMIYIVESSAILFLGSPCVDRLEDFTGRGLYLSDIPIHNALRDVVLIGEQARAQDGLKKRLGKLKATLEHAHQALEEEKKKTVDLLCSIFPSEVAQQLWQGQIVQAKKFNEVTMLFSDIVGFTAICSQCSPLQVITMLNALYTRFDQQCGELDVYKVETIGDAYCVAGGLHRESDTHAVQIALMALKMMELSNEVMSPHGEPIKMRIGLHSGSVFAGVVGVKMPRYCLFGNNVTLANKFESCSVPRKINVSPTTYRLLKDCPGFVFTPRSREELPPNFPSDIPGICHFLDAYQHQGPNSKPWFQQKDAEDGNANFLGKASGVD
Kind of assay: Effect on a recombinant guanylate cyclase reporter cell line (B-2). It is filed as cell-based. To be noted: MEC = minimum effective concentration; in some cases mean values from individual determinations. How it is done:
B-2. Effect on a Recombinant Guanylate Cyclase Reporter Cell Line
The cellular activity of the compounds according to the invention is determined using a recombinant guanylate cyclase reporter cell line, as described in F. Wunder et al., Anal. Biochem. 339, 104-112 (2005).
Representative MEC values (MEC=minimum effective concentration) for the compounds of the invention are shown in the table below (in some cases as mean values from individual determinations): […]
Regarding `Cc1cc(OCc2c(F)cccc2F)c2nc(C)c(C(=O)NCC3CCC(C#N)CC3)n2c1` (stereo not drawn) [Example 12, N-[(4-cyanocyclohexyl)methyl]-8-[(2,6-difluorobenzyl)oxy]-2,6-dimethylimidazo[1,2-a]pyridine-3-carboxamide], the MEC amounted to 0.1 µM. In the case of `Cc1cc(OC(C)c2c(F)cccc2F)c2nc(C)c(C(=O)NC(C#N)c3ccc(Cl)cc3)n2c1` (stereo not drawn) [Example 26, N-[(4-chlorophenyl)(cyano)methyl]-8-[1-(2,6-difluorophenyl)ethoxy]-2,6-dimethylimidazo[1,2-a]pyridine-3-carboxamide] it was 10 µM; in that of `CCOc1ccc(NC(=O)c2c(C)nc3c(OCc4c(F)cccc4F)cc(C)cn23)cc1C#N` [Example 32, N-(3-Cyano-4-ethoxyphenyl)-8-[(2,6-difluorobenzyl)oxy]-2,6-dimethylimidazo[1,2-a]pyridine-3-carboxamide], 1 µM. In the case of `Cc1cc(OCc2c(F)cccc2F)c2nc(C)c(C(=O)Nc3[nH]ncc3C#N)n2c1` [Example 33, N-(4-cyano-1H-pyrazol-5-yl)-8-[(2,6-difluorobenzyl)oxy]-2,6-dimethylimidazo[1,2-a]pyridine-3-carboxamide] it was 1 µM. In the case of `Cc1cc(OCc2c(F)cccc2F)c2nc(C)c(C(=O)Nc3ccccc3CC#N)n2c1` [Example 35, N-[2-(cyanomethyl)phenyl]-8-[(2,6-difluorobenzyl)oxy]-2,6-dimethylimidazo[1,2-a]pyridine-3-carboxamide] it was 0.3 µM. `Cc1cc(OCc2c(F)cccc2F)c2nc(C)c(C(=O)Nc3ccc(CC#N)cc3)n2c1` [Example 36, N-[4-(cyanomethyl)phenyl]-8-[(2,6-difluorobenzyl)oxy]-2,6-dimethylimidazo[1,2-a]pyridine-3-carboxamide]: the MEC amounted to 1 µM. Take `COc1ccc(NC(=O)c2c(C)nc3c(OCc4c(F)cccc4F)cc(C)cn23)cc1C#N` [Example 37, N-(3-cyano-4-methoxyphenyl)-8-[(2,6-difluorobenzyl)oxy]-2,6-dimethylimidazo[1,2-a]pyridine-3-carboxamide]: the MEC was 0.3 µM. For the compound `Cc1cc(OCc2c(F)cccc2F)c2nc(C)c(C(=O)NC3CNCC(C#N)C3)n2c1` (stereo not drawn) [Example 38, N-(5-Cyanopiperidin-3-yl)-8-[(2,6-difluorobenzyl)oxy]-2,6-dimethylimidazo[1,2-a]pyridine-3-carboxamide], the MEC was 0.3 µM. The result for `Cc1cc(OCc2c(F)ccc(C3CC3)c2F)c2nc(C)c(C(=O)NCC3CCC(C#N)CC3)n2c1` (stereo not drawn) [Example 40, N-[(4-Cyanocyclohexyl)methyl]-8-[(3-cyclopropyl-2,6-difluorobenzyl)oxy]-2,6-dimethylimidazo[1,2-a]pyridine-3-carboxamide] reads 3 µM.
